# Patent US20210025895A1, “CANCER SERUM BIOMARKERS AND METHODS OF USE THEREOF” (X4 Pharmaceuticals, Inc., priority 2018, published 2021)
# Where “and” joins values, the source holds several entries; their conditions need not be identical. Equal values may be shown once.
# Key:
# CXCL9 = assay: Serum CXCL9 in melanoma patients, Multi-Analyte Profile Platform (Myriad RBM); type: in vivo, human; settings: individual melanoma patients
# Procedure: (§1) Subjects were first screened and evaluated for baseline measurements.
# (§2) Prior to treatment two (2) baseline serum samples were collected from each patient.
# (§3) Three (3) weeks after treatment was initiated, additional serum samples were collected from each patient. Additional biopsy samples were also collected unless the attending physician recommended against the biopsy. Following sample collection, subjects were administered the first of two doses of pembrolizumab (2 mg/kg, i.v.).
# (§4) Three (3) weeks after the administration of the first dose of pembrolizumab (six weeks from beginning of treatment) additional serum samples were collected from each patient. Subjects then administered a second dose of pemrolizumab (2 mg/kg, i.v.).
# (§5) Three (3) weeks after the administration of the second dose of pembrolizumab (nine weeks from the beginning of treatment) additional serum samples were collected. Additional biopsy samples were also collected unless the attending physician recommended against the biopsy.
# (§6) Five (5) additional patients were evaluated. Baselines in Tables 1 and 2 represent measurements taken on Day 1. Baselines in Tables 1a and 2a represent an average of two measurements taken at screening and on Day 1.
# CXCL10 = assay: Serum CXCL10 in melanoma patients, Multi-Analyte Profile Platform (Myriad RBM); type: in vivo, human; settings: individual melanoma patients
# Procedure: as §1, §2, §3, §4, §5, §6
# [1] = test system: serum cytokines and chemokines; assay: Serum chemokines, cytokines and growth factors in melanoma patients, change vs baseline; type: in vivo, human
# Procedure: as §1, §2, §3, §6
# Solubility of X4P-001 = type: physicochemical
# [2] = test system: advanced or metastatic melanoma; assay: Tumor sample / tumor microenvironment biomarkers in solid tumors such as melanoma; type: in vivo, human
# Procedure: A primary comparison is the density of specific cell phenotypes in the tumor microenvironment in the pre-treatment biopsy vs. the Week 4 and EOT biopsies. CD8^+ T cells/mm^−2 are measured in melanoma tumor parenchyma prior to treatment.
# [3] = Phase 1 and 2a trials; cited from earlier work
# [4] = test system: melanoma, renal cell carcinoma, and ovarian cancer; settings: murine models; cited from earlier work
# in vivo = settings: terminal half-life (T1/2)
# [5] = test system: advanced clear-cell renal-cell carcinoma; settings: cited from earlier work; for objective response rate: Phase 3, nivolumab 3 mg/kg iv every two weeks vs everolimus 10 mg orally daily, P<0.001
# [6] = test system: pancreatic adenocarcinoma; settings: cited from earlier work
# [7] = test system: unresectable or metastatic melanoma; settings: Phase 3 trial, P<0.001; cited from earlier work
# [8] = solid tumors, e.g. advanced or metastatic melanoma
compound,measurement,setting,value
NCCCCN(Cc1nc2ccccc2[nH]1)[C@H]1CCCc2cccnc21 [X4P-001],"Patient Serum CXCL9 Levels, Post-X4P-001 Monotherapy","CXCL9; Table 1, three weeks single agent therapy",836 pg/mL and 2260 pg/mL and 2530 pg/mL and 843 pg/mL and 2020 pg/mL and 1020 pg/mL and 1410 pg/mL and 766 pg/mL and 794 pg/mL and 1380 pg/mL and 425 pg/mL
same,"Patient Serum CXCL9 Levels, Post-X4P-001 Monotherapy","CXCL9; Table 1a (updated data, 16 patients)",836 pg/mL and 2260 pg/mL and 2530 pg/mL and 843 pg/mL and 2020 pg/mL and 1020 pg/mL and 1410 pg/mL and 766 pg/mL and 1245 pg/mL and 769.5 pg/mL and 460.5 pg/mL and 1030 pg/mL and 1750 pg/mL and 794 pg/mL and 1380 pg/mL and 425 pg/mL
same,"Patient Serum CXCL10 Levels, Post-X4P-001 Monotherapy","CXCL10; Table 2, three weeks single agent therapy",767 pg/mL and 146 pg/mL and 262 pg/mL and 101 pg/mL and 123 pg/mL and 384 pg/mL and 118 pg/mL and 174 pg/mL and 139 pg/mL and 331 pg/mL and 521 pg/mL
same,"Patient Serum CXCL10 Levels, Post-X4P-001 Monotherapy","CXCL10; Table 2a (updated data, 16 patients)",767 pg/mL and 146 pg/mL (2×) and 262 pg/mL and 101 pg/mL and 123 pg/mL and 384 pg/mL and 118 pg/mL and 174 pg/mL and 272 pg/mL and 166 pg/mL and 350 pg/mL and 139 pg/mL and 331 pg/mL and 521 pg/mL
same,serum CXCL9 and CXCL10 levels,"[1]; following monotherapy, melanoma patients",generally increase following monotherapy
same,levels of serum CXCL9 and CXCL10,"[1]; patients with solid tumors, e.g. advanced or metastatic melanoma",increases levels of serum CXCL9 and CXCL10
same,levels of serum cytokine panel,[1]; serum,modulates levels of one or more of a panel of serum cytokines
same,solubility,"Solubility of X4P-001; aqueous buffer, pH range 3.0 to 8.0 (freely soluble)",> 100 mg/mL
same,solubility in water,Solubility of X4P-001; water,only slightly soluble
same,levels of Treg cells,[2]; [8],without significantly increasing levels of Treg cells
same,levels of macrophages in the tumor,[2]; [8],without significantly modulating levels of macrophages in the tumor
same,numbers of CD8+ T cells and/or CD4+ T cells in tumors,[2]; [8],increases observed numbers of CD8^+ T cells and/or CD4^+ T cells
same,IFN-γ gene signature,[2]; tumor,increases one or more of a panel of IFN-γ related genes
same,PD-L1 expression,[2]; tumor samples and tumor microenvironment,increases PD-L1 expression in tumor samples and the tumor microenvironment
same,CTL signature gene expression,[2]; tumor samples or tumor microenvironment,increases gene expression of one or more of a panel of cytotoxic T cell (CTL)-related genes
same,"pharmacodynamic activity, circulating white blood cells (WBCs)",[3],dose- and concentration-related changes in circulating white blood cells
same,volume of distribution (VL),[3],high volume of distribution
same,"anti-tumor activity, including decreased metastasis and increased overall survival",[4],significant anti-tumor activity
same,half-life,in vivo,12 to 24 h
CO[C@H]1C[C@@H]2CC[C@@H](C)[C@@](O)(O2)C(=O)C(=O)N2CCCC[C@H]2C(=O)O[C@H]([C@H](C)C[C@@H]2CC[C@@H](OCCO)[C@H](OC)C2)CC(=O)[C@H](C)/C=C(\C)[C@@H](O)[C@@H](OC)C(=O)[C@H](C)C[C@H](C)/C=C/C=C/C=C/1C [everolimus],objective response rate,[5],5%
"c1cc(CN2CCCNCCNCCCNCC2)ccc1CN1CCCNCCNCCCNCC1 [plerixafor, Plerixafor]","anti-tumor activity, including decreased metastasis and increased overall survival",[4],significant anti-tumor activity
same,tumor growth,[6]; in combination with anti-PD-L1,synergistically decreased tumor growth
same,T-cell accumulation among cancer cells,[6]; murine pancreatic adenocarcinoma,induced rapid T-cell accumulation among the cancer cells
ipilimumab: anti-CTLA-4 antibody,objective response rate,[7],12%
nivolumab: fully human IgG4 monoclonal antibody binding to the PD-1 receptor,objective response rate,[5],25%
same,incidence of Grade 3 or 4 treatment-related adverse events,[5]; vs everolimus,lower incidence of Grade 3 or 4 treatment-related adverse events
same,median overall survival,[5]; vs everolimus,longer median overall survival
pembrolizumab: humanized IgG4 kappa monoclonal antibody that blocks the interaction between PD-1 and its ligands,objective response rate,[7],33%
